Test results taken from US8983257B2, “Therapeutic light delivery apparatus, method, and system” (Nomir Medical Technologies, Inc., priority 2002, dated 2015).
Where “and” joins values, the source holds several entries; their conditions need not be identical. Equal values may be shown once. Entries after “also recorded” stand apart in the source; their conditions may differ.

Key:
Assay type in all cases: cell-based, Staphylococcus aureus
MRSA [1] = assay: MRSA/antimicrobial potentiation Experiment 3: CFU with or without 30 μg/ml methicillin, laser dosages A3 to H3; details: for Fold increase in methicillin sensitivity: 30 μg/ml methicillin
Procedure: Eight different laser dosages based on an effective dose established in experiments 1 and 2 and previously were used to treat a saline-suspension of logarithmically growing MRSA, labeled A3 to H3.
[…] After 24 hrs of growth at 37° C. colonies were counted.

MRSA [2] = assay: MRSA/antimicrobial potentiation Experiment 2: CFU with or without 30 μg/ml methicillin, laser dosages A2 to H2; details: for Fold increase in methicillin sensitivity: 30 μg/ml methicillin
Procedure: Eight different laser dosages based on an effective dose established in experiment 1 and previously were used to treat a saline-suspension of logarithmically growing MRSA, labeled A2 to H2.
(§1) The treated and a control untreated suspension were diluted and plated in triplicate on trypic soy agar with or without 30 μg/ml methicillin.
(§2) After 24 hrs of growth at 37° C. colonies were counted.

MRSA [3] = assay: MRSA CFU count with methicillin after sub-lethal NIMELS laser (Example X); details: methicillin at resistant MIC just below effectiveness level
Excerpt: The following illustrates the general antibacterial methods according to the invention, using a MRSA model for the in vitro Experiments V and VIII-XII.
a) μ1 is sub-lethal dosimetry from the NIMEL laser system on MRSA as a control and;

MRSA [4] = assay: MRSA/antimicrobial potentiation Experiment 4: CFU with or without methicillin, penicillin G or erythromycin, groups A4 to F4; details: for CFU: agar with 30 μg/ml methicillin
Excerpt: Two different laser dosages based on an effective dose established in previous experiments were used to treat a saline-suspension of logarithmically growing MRSA, labeled A4 to F4.

MRSA [5] = assay: MRSA/antimicrobial potentiation Experiment 1: CFU with or without 30 μg/ml methicillin, laser dosages A1 to H1; details: for fewer CFU in the laser treated samples compared to the untreated controls: methicillin plates (30 μg/ml)
Procedure: Four separate experiments have been performed.
Eight different laser dosages were used to treat a saline-suspension of logarithmically growing MRSA, labeled A1 to H1.
as §1, §2
CFU (colony forming units) were compared between the plates with and without methicillin for both control (untreated) and treated MRSA.

## COc1cccc(OC)c1C(=O)N[C@@H]1C(=O)N2[C@@H]1SC(C)(C)[C@@H]2C(=O)O [Methicillin]
MRSA [1]; B3, Exp (laser treated), plates with 30 μg/ml methicillin
  CFU AVG: 19
MRSA [1]; CFU on plates with and without 30 μg/ml methicillin, groups A3 to H3
  effectiveness of methicillin in laser treated samples (in words): significant increase in the effectiveness of methicillin in all laser treated samples
MRSA [1]; D3, Cont (untreated suspension), plates with 30 μg/ml methicillin, single plates
  CFU: 58
MRSA [1]; D3, Exp (laser treated), plates with 30 μg/ml methicillin
  CFU AVG: 3.6
MRSA [1]; F3, Exp (laser treated), plates with 30 μg/ml methicillin
  CFU AVG: 9.8
MRSA [1]; G3, Exp (laser treated), plates with 30 μg/ml methicillin
  CFU AVG: 8.4
MRSA [1]; H3, Exp (laser treated), plates with 30 μg/ml methicillin
  CFU AVG: 8.4
MRSA [1]; laser dosage grouping A3
  Fold increase in methicillin sensitivity: 1.98
MRSA [1]; laser dosage grouping B3
  Fold increase in methicillin sensitivity: 1.62
MRSA [1]; laser dosage grouping C3
  Fold increase in methicillin sensitivity: 1.91
MRSA [1]; laser dosage grouping D3
  Fold increase in methicillin sensitivity: 2.59
MRSA [1]; laser dosage grouping E3
  Fold increase in methicillin sensitivity: 2.09
MRSA [1]; laser dosage grouping F3
  Fold increase in methicillin sensitivity: 2.08
MRSA [1]; laser dosage grouping G3
  Fold increase in methicillin sensitivity: 3.16
MRSA [1]; laser dosage grouping H3
  Fold increase in methicillin sensitivity: 2.97
MRSA [2]; A2, Exp (laser treated), plates with 30 μg/ml methicillin
  CFU AVG: 41
MRSA [2]; CFU on plates with and without 30 μg/ml methicillin, groups A2 to H2
  effectiveness of methicillin in laser treated samples (in words): significant increase in the effectiveness of methicillin in all laser treated samples with the exception of A2 and B2
MRSA [2]; D2, Cont (untreated suspension), plates with 30 μg/ml methicillin
  CFU AVG: 52
MRSA [2]; D2, Exp (laser treated), plates with 30 μg/ml methicillin
  CFU AVG: 2.3
MRSA [2]; E2, Exp (laser treated), plates with 30 μg/ml methicillin
  CFU AVG: 2.7
MRSA [2]; F2, Cont (untreated suspension), plates with 30 μg/ml methicillin
  CFU AVG: 71
MRSA [2]; G2, Exp (laser treated), plates with 30 μg/ml methicillin
  CFU AVG: 8.3
MRSA [2]; H2, Cont (untreated suspension), plates with 30 μg/ml methicillin, single plates
  CFU: 82
MRSA [2]; laser dosage grouping A2
  Fold increase in methicillin sensitivity: 0.84
MRSA [2]; laser dosage grouping B2
  Fold increase in methicillin sensitivity: 0.91
MRSA [2]; laser dosage grouping C2
  Fold increase in methicillin sensitivity: 3.20
MRSA [2]; laser dosage grouping D2
  Fold increase in methicillin sensitivity: 2.44
MRSA [2]; laser dosage grouping E2
  Fold increase in methicillin sensitivity: 4.33
MRSA [2]; laser dosage grouping F2
  Fold increase in methicillin sensitivity: 2.13
MRSA [2]; laser dosage grouping G2
  Fold increase in methicillin sensitivity: 3.47
MRSA [2]; laser dosage grouping H2
  Fold increase in methicillin sensitivity: 1.62
MRSA [3]
  effect of methicillin after sub-lethal NIMELS irradiation on growth of MRSA colonies (in words): potentiated by sub-lethal NIMELS dosimetry; also recorded: produces a deleterious effect after sub-lethal NIMEL irradiation on normal growth of MRSA colonies
MRSA [4]; Group A4, Cont (no laser), replicate plates 1-5, 24 hrs 37° C.
  CFU: 97 CFU and 90 CFU
MRSA [4]; Group A4, Exp (laser treated), replicate plates 1-5
  CFU: 37 CFU and 33 CFU and 36 CFU (2×) and 39 CFU
MRSA [4]; Group B4, Exp (laser treated), replicate plates 1-5
  CFU: 46 CFU (2×) and 34 CFU and 42 CFU and 44 CFU
MRSA [4]; sub-lethal NIMELS dosimetry, bar chart figure
  synergy or potentiation with NIMELS in growth inhibition of MRSA colonies (in words): synergistic effects; also recorded: potentiated by sub-lethal NIMELS dosimetry
MRSA [4]; temperature levels not lethal to the organism
  reversal of MRSA resistance in vitro by dual wavelength NOVEON laser (in words): successful reversal of MRSA resistance
MRSA [5]; Exp (laser treated), laser dosage F1, with 30 μg/ml methicillin
  AVG (CFU): 197 CFU
MRSA [5]; condition A1
  fewer CFU in the laser treated samples compared to the untreated controls: 30%
MRSA [5]; condition B1
  fewer CFU in the laser treated samples compared to the untreated controls: 33%
MRSA [5]; condition C1
  fewer CFU in the laser treated samples compared to the untreated controls: 67%
MRSA [5]; treatments performed on sample A1, B1 and C1
  sensitization of MRSA by laser treatment (in words): sensitized the MRSA to the effects of methicillin
